Experimental data as given in patent publication US20100056791A1, “Pyrazolopyridine carboxamide derivative and phosphodiesterase (pde) inhibitor containing the same” (priority 2006, published 2010).

Legend:
[1] = test system: histamine-induced bronchoconstriction; experiment: Histamine-induced airway contraction reaction in guinea pigs; type: in vivo; details: Cavia porcellus, iv, 0.5 min, i.v., 0.1 mg/kg administration (not in brackets), 30 seconds after administration, read-out: Inhibition ratio
Procedure: Guinea pigs were anesthetized with pentobarbital (30 mg/kg, i.p.). A cannula for intravenous administration, a cannula for collecting blood and measuring blood pressure, and a tracheal cannula were inserted into the left external jugular vein, right internal carotid artery, and trachea, respectively. The guinea pigs were maintained on artificial respiration under the conditions of 60 times/min and 10 mL/kg/stroke. The airflow from the side branch of the tracheal cannula was measured by a bronchospasm transducer (Ugo-Basile) and recorded on a computer via Power Lab (ADInstruments Japan). The guinea pigs were immobilized with gallamine (10 mg/kg, i.v.), and histamine was administered at 10-minute intervals (12.5 μg/kg, i.v.). […] We examined the inhibitory action of test compounds on histamine-induced bronchoconstriction 30 seconds after compounds administration. Bronchoconstriction was recorded as the amount of airflow, and the results were represented by the ratio of the maximum value of the histamine-induced airflow 30 seconds after the administration to the maximum value of the airflow before the administration. When the inhibition ratio≧90%, the results were represented by “+++.” When 90%>the inhibition ratio≧70%, the results were represented by “++.” When 70%>the inhibition ratio≧30%, the results were represented by “+.” The results shown in brackets are for 0.3 mg/kg administration, and the other results are for 0.1 mg/kg administration.

[2] = biological target: T1, PDE4B catalytic domain (PDE4Bcat) (Homo sapiens, UniProt Q07343); experiment: Phosphodiesterase inhibitory activity ([3H]cAMP breakdown, recombinant PDE4Bcat); type: biochemical; details: 30° C. 20 minutes, read-out: IC50(μmol/L) PDE4
T1 construct: The cDNA of PDE4B catalytic domain (hereinafter abbreviated as Cat) was isolated from human RNA by RT-PCR; made in house; host or cells: Sf9 insect cells (baculovirus, Gateway / Bac-to-Bac)
Description: The cDNA of PDE4B catalytic domain (hereinafter abbreviated as Cat) was isolated from human RNA by RT-PCR. The isolated cDNA fragments were inserted into Sf9 insect cells using Gateway system (product of Invitrogen Corporation) and Bac-to-Bac (registered trademark) Baculovirus Expression system (product of Invitrogen Corporation) to express a target PDE protein. The recombinant PDE4Bcat was purified from the culture supernatants or cell extracts of Sf9 cells expressing high levels of the PDE protein by ion exchange chromatography and was used for the following experiments.
A 4 mmol/L solution of each test compound was serially diluted four-fold with a 15% DMSO solution to prepare solutions with concentrations of 15 nmol/L to 4 mmol/L (the final concentrations used in the experiments were 1.5 nmol/L to 400 μmol/L). 10 μL of the prepared test compound solutions, [3H] cAMP diluted with a buffer solution (40 mmol/L Tris-HCl (pH: 7.4), 10 mmol/L MgCl2), and 40 μL of the recombinant human PDE protein (2×10^−6 units, 1 unit is defined as the amount of PDE that breaks down 1 μmol/L of cAMP in one minute under the conditions of a pH of 7.5 and 30° C.) were added to a 96-well plate. The mixtures were reacted at 30° C. for 20 minutes. Then, the resultant mixtures were reacted at 65° C. for 2 minutes. Subsequently, 25 μL of 1 mg/mL5′-nucleotidase (Crotalus atrox venom, product of Sigma) was added to the mixtures, and the mixtures were reacted at 30° C. for 10 minutes. After completion of the reaction, 200 μL of a solution of Dowex (300 mg/mL Dowex 1×8-400 (product of Sigma Aldrich), 33% ethanol) was added to the mixtures, and the mixtures were shaken at 4° C. for 20 minutes. Subsequently, 200 μL of MicroScint 20 (product of Packard) was added to the mixtures, and measurement was performed using a scintillation counter (Topcount, product of Packard). IC50 values were calculated using Graph Pad Prism v3.03 (product of GraphPad Software). When […], the results were represented by “+.” When 0.1 μmol/L>the IC50 value, the results were represented by “++.”

[3] = test system: LPS-induced leukocytes in bronchoalveolar lavage fluid; experiment: LPS acute inflammation model in rats (total leukocytes in BALF); type: in vivo; details: 1 mg/kg orally one hour before LPS inhalation, total leukocytes in BALF 3 hours after LPS
Procedure: 1 mg/kg of the compounds were orally administered to rats one hour before inhalation of lipopolysaccharide (LPS) from E. coli serotype 055:B5, rats were inhaled nebulizing LPS solution (50 mL) by nebulizer for 30 minutes. Then, 3 hours after the LPS inhalation, the rats were euthanized with 20% urethane (5 ml/rat, i.p.). 5 ml of physiological saline for bronchoalveolar lavage was injected into the bronchial tubes and alveoli through the airway, and the bronchial tubes and alveoli were washed 3 times using a 5 mL syringe. This procedure was repeated twice, and the solution was collected as bronchoalveolar lavage fluid (BALF). The collected BALF was centrifuged at 1,200 rpm and […] for 10 minutes (Hirtachi; himac CR 5 DL). The sediment was re-suspended in 10 mL of a 0.1% bovine serum albumin-physiological saline, and an equivalent amount of Turk's solution was added to the suspension to stain leukocytes. The total number of leukocytes was counted under a microscope to determine the inhibition ratio. When the inhibition ratio≧60%, the results were represented by “++.” When 60%>the inhibition ratio≧50%, the results were represented by “+.”

T1 sequence (Q07343 330-659 limits assumed): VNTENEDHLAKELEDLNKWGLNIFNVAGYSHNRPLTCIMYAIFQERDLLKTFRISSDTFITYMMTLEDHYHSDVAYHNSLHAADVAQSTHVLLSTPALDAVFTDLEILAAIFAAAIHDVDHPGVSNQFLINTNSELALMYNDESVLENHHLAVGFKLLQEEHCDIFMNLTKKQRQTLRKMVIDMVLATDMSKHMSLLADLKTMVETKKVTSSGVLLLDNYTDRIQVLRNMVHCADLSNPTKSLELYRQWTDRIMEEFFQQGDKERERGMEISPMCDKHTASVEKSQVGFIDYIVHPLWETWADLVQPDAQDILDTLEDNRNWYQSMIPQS

Row | Compound | IC50 [2] | inhibition in vivo at 0.1 mg/kg [1] | Inhibition ratio [3]
1 | CCc1cc2c(C(=O)Nc3c(Cl)cncc3Cl)ccc(OC)n2n1 [Example 9, 2-Ethyl-7-methoxypyrazolo[1,5-a]pyridine-4-carboxylic acid (3,5-dichloropyridin-4-yl)amide] | < 0.1 µmol/L | 70 to 90% | + (When 60%>the inhibition ratio≧50%, the results were represented by “+.”)
2 | COc1ccc(C(=O)Nc2c(Cl)cncc2Cl)c2cc(C(F)(F)F)nn12 [Example 16, 7-Methoxy-2-trifluoromethylpyrazolo[1,5-a]pyridine-4-carboxylic acid (3,5-dichloropyridin-4-yl)amide] | < 0.1 µmol/L | ≥ 90% | ++ (When the inhibition ratio≧60%, the results were represented by “++.”)
3 | CSc1ccc(C(=O)Nc2c(Cl)cncc2Cl)c2cc(C(F)(F)F)nn12 [Example 92, 7-Methylsulfanyl-2-trifluoromethylpyrazolo[1,5-a]pyridine-4-carboxylic acid (3,5-dichloropyridin-4-yl)amide] | < 0.1 µmol/L | 30 to 70% | –

Continued, in another order:

Row | IC50 [2] | Compound | inhibition in vivo at 0.1 mg/kg [1] | Inhibition ratio [3]
4 | < 0.1 µmol/L | O=C(Nc1c(Cl)cncc1Cl)c1ccc(CO)n2nc(C(F)(F)F)cc12 [Example 105, 7-Hydroxymethyl-2-trifluoromethylpyrazolo[1,5-a]pyridine-4-carboxylic acid (3,5-dichloropyridin-4-yl)amide] | ≥ 90% | –
5 | < 0.1 µmol/L | CC(O)c1ccc(C(=O)Nc2c(Cl)cncc2Cl)c2cc(C(F)(F)F)nn12 (stereo not shown) [Example 107, 7-(1-Hydroxyethyl)-2-trifluoromethylpyrazolo[1,5-a]pyridine-4-carboxylic acid (3,5-dichloropyridin-4-yl)amide] | 70 to 90% | + (When 60%>the inhibition ratio≧50%, the results were represented by “+.”)
